The supplement of paper PMC10307832

How the values were obtained:
Assay in all cases: relative viability (nuclei count vs DMSO), 5 days (fraction); higher = more cells survive
HCC-15 = system: HCC-15
Method in brief: (§1)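 Lung cancer cell lines were pin-tool dosed in 1536-well plates on the day after seeding, with either a lone drug or a fixed anchor-drug dose plus five library-drug doses (not always all listed) in √10 steps. Nuclei were counted on 4× images after 5 days. Relative viability is the ratio of treated-well to vehicle-well nuclei counts, with each value a median of duplicate plates.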

HCC-366 = system: HCC-366
Method in brief: as §1

NCI-H2126 = system: NCI-H2126
Method in brief: as §1

A-427 = system: A-427
Method in brief: as §1

NCI-H1734 = system: NCI-H1734
Method in brief: as §1

NCI-H2023 = system: NCI-H2023
Method in brief: as §1

NCI-H2009 = system: NCI-H2009
Method in brief: as §1

NCI-H1650 = system: NCI-H1650
Method in brief: as §1

SW 1573 = system: SW 1573
Method in brief: as §1

LOU-NH91 = system: LOU-NH91
Method in brief: as §1

NCI-H441 = system: NCI-H441
Method in brief: as §1

HCC-44 = system: HCC-44
Method in brief: as §1

NCI-H650 = system: NCI-H650
Method in brief: as §1

RERF-LC-KJ = system: RERF-LC-KJ
Method in brief: as §1

NCI-H460 = system: NCI-H460
Method in brief: as §1

HARA = system: HARA
Method in brief: as §1

ChaGo-K-1 = system: ChaGo-K-1
Method in brief: as §1

HCC-78 = system: HCC-78
Method in brief: as §1

COR-L23 = system: COR-L23
Method in brief: as §1

LCLC-97TM1 = system: LCLC-97TM1
Method in brief: as §1

LCLC-103H = system: LCLC-103H
Method in brief: as §1

NCI-H1993 = system: NCI-H1993
Method in brief: as §1

201T = system: 201T
Method in brief: as §1

Cc1cnc(-c2cnc(NCCNc3ccc(C#N)cn3)nc2-c2ccc(Cl)cc2Cl)[nH]1 + CC(=O)c1c(C)c2cnc(Nc3ccc(N4CCNCC4)cn3)nc2n(C2CCCC2)c1=O [Palbociclib] (partner 0.5 µM)
relative viability (HCC-15; first compound 0.08 µM): 0.689 | relative viability (HCC-15; first compound 0.253 µM): 0.543 | relative viability (HCC-15; first compound 0.8 µM): 0.69 | relative viability (HCC-15; first compound 2.53 µM): 0.724 | relative viability (HCC-366; first compound 0.08 µM): 0.404 | relative viability (HCC-366; first compound 0.253 µM): 0.331 | relative viability (HCC-366; first compound 0.8 µM): 0.391 | relative viability (HCC-366; first compound 2.53 µM): 0.312 | relative viability (NCI-H2126; first compound 0.08 µM): 0.369 | relative viability (NCI-H2126; first compound 0.253 µM): 0.355 | relative viability (NCI-H2126; first compound 0.8 µM): 0.331 | relative viability (NCI-H2126; first compound 2.53 µM): 0.341 | relative viability (A-427; first compound 0.08 µM): 0.537 | relative viability (A-427; first compound 0.253 µM): 0.539 | relative viability (A-427; first compound 0.8 µM): 0.567 | relative viability (A-427; first compound 2.53 µM): 0.563 | relative viability (NCI-H1734; first compound 0.08 µM): 0.403 | relative viability (NCI-H1734; first compound 0.253 µM): 0.342 | relative viability (NCI-H1734; first compound 0.8 µM): 0.391 | relative viability (NCI-H1734; first compound 2.53 µM): 0.189 | relative viability (NCI-H2023; first compound 0.08 µM): 0.41 | relative viability (NCI-H2023; first compound 0.253 µM): 0.344 | relative viability (NCI-H2023; first compound 0.8 µM): 0.387 | relative viability (NCI-H2023; first compound 2.53 µM): 0.541 | relative viability (NCI-H2009; first compound 0.08 µM): 0.256 | relative viability (NCI-H2009; first compound 0.253 µM): 0.208 | relative viability (NCI-H2009; first compound 0.8 µM): 0.29 | relative viability (NCI-H2009; first compound 2.53 µM): 0.225 | relative viability (NCI-H1650; first compound 0.08 µM): 0.368 | relative viability (NCI-H1650; first compound 0.253 µM): 0.306 | relative viability (NCI-H1650; first compound 0.8 µM): 0.306 | relative viability (NCI-H1650; first compound 2.53 µM): 0.258 | relative viability (SW 1573; first compound 0.08 µM): 0.387 | relative viability (SW 1573; first compound 0.253 µM): 0.336 | relative viability (SW 1573; first compound 0.8 µM): 0.368 | relative viability (SW 1573; first compound 2.53 µM): 0.146 | relative viability (LOU-NH91; first compound 0.08 µM): 0.547 | relative viability (LOU-NH91; first compound 0.253 µM): 0.515 | relative viability (LOU-NH91; first compound 0.8 µM): 0.581 | relative viability (LOU-NH91; first compound 2.53 µM): 0.527 | relative viability (NCI-H441; first compound 0.08 µM): 0.224 | relative viability (NCI-H441; first compound 0.8 µM): 0.258 | relative viability (NCI-H441; first compound 2.53 µM): 0.185 | relative viability (HCC-44; first compound 0.08 µM): 0.957 | relative viability (HCC-44; first compound 0.253 µM): 0.931 | relative viability (HCC-44; first compound 0.8 µM): 0.97 | relative viability (HCC-44; first compound 2.53 µM): 0.985 | relative viability (NCI-H650; first compound 0.08 µM): 0.311 | relative viability (NCI-H650; first compound 0.253 µM): 0.334 | relative viability (NCI-H650; first compound 0.8 µM): 0.317 | relative viability (NCI-H650; first compound 2.53 µM): 0.351 | relative viability (RERF-LC-KJ; first compound 0.08 µM): 1.18 | relative viability (RERF-LC-KJ; first compound 0.253 µM): 0.905 | relative viability (RERF-LC-KJ; first compound 0.8 µM): 1.01 | relative viability (RERF-LC-KJ; first compound 2.53 µM): 0.956 | relative viability (NCI-H460; first compound 0.08 µM): 0.154 | relative viability (NCI-H460; first compound 0.253 µM): 0.0849 | relative viability (NCI-H460; first compound 0.8 µM): 0.135 | relative viability (NCI-H460; first compound 2.53 µM): 0.146 | relative viability (HARA; first compound 0.08 µM): 0.296 | relative viability (HARA; first compound 0.253 µM): 0.288 | relative viability (HARA; first compound 0.8 µM): 0.262 | relative viability (HARA; first compound 2.53 µM): 0.241 | relative viability (ChaGo-K-1; first compound 0.08 µM): 0.929 | relative viability (ChaGo-K-1; first compound 0.253 µM): 0.807 | relative viability (ChaGo-K-1; first compound 0.8 µM): 0.903 | relative viability (ChaGo-K-1; first compound 2.53 µM): 0.833 | relative viability (HCC-78; first compound 0.08 µM): 0.463 | relative viability (HCC-78; first compound 0.253 µM): 0.441 | relative viability (HCC-78; first compound 0.8 µM): 0.466 | relative viability (HCC-78; first compound 2.53 µM): 0.467 | relative viability (COR-L23; first compound 0.08 µM): 0.328 | relative viability (COR-L23; first compound 0.253 µM): 0.266 | relative viability (COR-L23; first compound 0.8 µM): 0.272 | relative viability (COR-L23; first compound 2.53 µM): 0.264 | relative viability (LCLC-97TM1; first compound 0.08 µM): 0.282 | relative viability (LCLC-97TM1; first compound 0.253 µM): 0.17 | relative viability (LCLC-97TM1; first compound 0.8 µM): 0.215 | relative viability (LCLC-97TM1; first compound 2.53 µM): 0.209 | relative viability (LCLC-103H; first compound 0.08 µM): 0.516 | relative viability (LCLC-103H; first compound 0.253 µM): 0.475 | relative viability (LCLC-103H; first compound 0.8 µM): 0.426 | relative viability (LCLC-103H; first compound 2.53 µM): 0.507 | relative viability (NCI-H1993; first compound 0.08 µM): 0.718 | relative viability (NCI-H1993; first compound 0.253 µM): 0.566 | relative viability (NCI-H1993; first compound 0.8 µM): 0.621 | relative viability (NCI-H1993; first compound 2.53 µM): 0.679 | relative viability (201T; first compound 0.08 µM): 0.384 | relative viability (201T; first compound 0.8 µM): 0.362 | relative viability (201T; first compound 2.53 µM): 0.38
